Test results taken from patent US11779582B2, “Composition for preventing or treating metastatic ovarian cancer, endometrial cancer or breast cancer” (LEMONEX INC., priority 2017, dated 2023).

Experiments:
Assay type in all cases: cell-based
[1] = test system: AKT and STAT3 phosphorylation in sphere cultured SKOV3ip1 cells; assay: immunostaining of AKT and STAT3 phosphorylation, sphere culture
From the text: In order to identify whether a change in signaling pathways associated with cell survival appears or not according to 2D monolayer culture (2D MC) and 3D sphere culture (3D SC), immunostaining was implemented. More particularly, after culturing SKOV3ip1 cells (1×10^6) by 2D monolayer culture or 3D sphere culture described in section 1.1, expression of cell-signaling molecules including AKT, STAT3, p42/44 ERK and p38 MAPK was detected and activation states in the monolayer cultured cells and the sphere cultured cells were compared. The monolayer cultured or sphere cultured SKOV3ip1 cells were harvested and washed once with ice-cold 1× phosphate buffered saline, followed by dissolving the same in 100 μl ice-cold RIPA buffer (20 mM Tris-Cl, pH 8.0, 125 mM NaCl, […], 1 mM ethylene diamine tetraacetic acid, 1% Triton X-100, 0.5% sodium deoxycholate, 0.1% sodium dodecyl sulfate, 1× complete protease inhibitor cocktail (Roche, Mannheim, Germany)) on ice. After assessing the protein concentration using a Bradford Protein assay kit (Biorad, CA, USA), the same amount of proteins (30 μg) was separated by SDS-PAGE and moved to a nitrocellulose membrane, followed by immunostaining the same using a horseradish peroxide conjugated second antibody and a specific antibody. An immune activation band was detected with SuperSignal West Pico Chemiluminescent Substrate (Thermo, IL, USA) using a Fusion Solo chemiluminescence analyzer (Vilber Rourmat Marne la Vallee, France). Antibodies to STAT3 (H-190), STAT3 (B-7) phosphorylated at Tyr705 and actin (C-2) were purchased from Santa Cruz Biotechnology. Rabbit monoclonal antibodies on AKT, AKT (D9E) phosphorylated at Ser473, FGFR1 phosphorylated at Tyr 653/654, p42/44 MAPK, phosphorylated p42/44 MAPK, p38 MAPK and p38 MAPK phosphorylated at Tyr 180/182 were purchased from Cell Signaling Technology (MA, USA). Further, HRP-conjugated goat anti-mouse and rabbit secondary antibodies were purchased from Jackson Laboratories, while BGJ398 used in the experiment (against FGFR1/2/3) was purchased from Selleckchem (USA).
Under this ground, in order to determine whether BGJ398 can vary the state of AKT and STAT3 in the sphere cultured SKOV3ip1 cells, the monolayer cultured (MC) or sphere cultured (SC) SKOV3ip1 cells were subjected to treatment using 5 μM BGJ398, followed by examining the degree of phosphorylation due to the above treatment.
Further, the sphere cultured SKOV3ip1 cells were treated with 5 μM BGJ398 (BGJ), 3 μM TAE648 (TAE) and 5 μM imatinib (IMT), respectively. After 72 hours, a cell lysate was obtained and subjected to immunostaining, followed by analyzing active cellular expression of AKT and STAT3 with the antibody for the same. Further, a phosphorylation level of FGFR1 was used as a positive control group relative to BGJ treatment groups while actin was used as a loading control group. The immunostaining assay procedure was implemented in the same manner as in Example 1.
Since the cell survival of the sphere cultured SKOV3ip1 cells is inhibited by BGJ398 treatment, whether such cell survival inhibition is intermediated through JAK/STAT3 signaling pathway was further examined. […]

[2] = test system: phosphorylated AKT and XIAP in SKOV3-TR ovarian cancer cells; assay: immunostaining of AKT down-signal mechanism; details: BGJ398 treatment, paclitaxel alone or in combination with BGJ398 (FIG. 27)
Method: FIG. 27 illustrates results of identifying whether there is expression of AKT, phosphorylated AKT, BAD, phosphorylated BAD, XIAP, CASP9, p42/44 and/or phosphorylated p42/44, in order to determine AKT down-signal mechanism in relation to cell survival and cell apoptosis in the cells when paclitaxel alone or in combination with BGJ398 was administered to SKOV3-TR ovarian cancer cells. […] The reason of this fact is considered because a level of XIAP expression in the cells is decreased thus to improve paclitaxel sensitivity.

[3] = test system: SKOV3ip1-TR ovarian cancer cells; assay: microscopic analysis of cell shape change; details: BGJ398 in combination with paclitaxel (FIG. 21)
Method: FIG. 21 illustrates a change in cell shape, when paclitaxel alone, BGJ398 alone or in combination with […] was administered to the SKOV3ip1-TR ovarian cancer cells.

[4] = test system: sphere cultured SKOV3ip1 cells; assay: microscopic observation of aggregated (spheroid) form; details: 5 μM BGJ398, 3 μM TAE648, 5 μM imatinib (FIG. 5)
Method: For 3D sphere culture, SKOV3ip1 cells (1×10^6) were dispensed on ultra-low adherent 6-well plate (Corning NY, USA), and then, cultured in 5% CO2 incubator using RPMI 1640 medium supplemented with 10% fetal bovine serum (Gibco, NY, USA) and 10 U/ml penicillin/streptomycin (Gibco).

[5] = test system: Hs578T breast cancer cell line (2D monolayer culture); assay: crystal violet staining and morphology, paclitaxel in combination with BGJ398
Method: With respect to the cancer cell lines listed in Table 2 below, synergistic effects of paclitaxel and BGJ398 were further examined. According to the same procedures as described in the previous examples, each cell line was divided and cultured by 2D monolayer culture and 3D sphere culture, respectively. Then, a change due to administration of BGJ398 alone or in combination with paclitaxel was analyzed through morphological analysis.

[6] = test system: cleaved PARP in SKOV3-TR ovarian cancer cells; assay: cleaved PARP immunostaining; details: BGJ398 in combination with paclitaxel (FIGS. 24 and 25)
From the text: In order to identify whether a change in signaling pathways associated with cell survival appears or not according to 2D monolayer culture (2D MC) and 3D sphere culture (3D SC), immunostaining was implemented. More particularly, after culturing SKOV3ip1 cells (1×10^6) by 2D monolayer culture or 3D sphere culture described in section 1.1, expression of cell-signaling molecules including AKT, STAT3, p42/44 ERK and p38 MAPK was detected and activation states in the monolayer cultured cells and the sphere cultured cells were compared. […] An immune activation band was detected with SuperSignal West Pico Chemiluminescent Substrate (Thermo, IL, USA) using a Fusion Solo chemiluminescence analyzer (Vilber Rourmat Marne la Vallee, France). […]
FIGS. 24 and 25 illustrate expression of cleaved PARP and actin upon administration of paclitaxel alone, BGJ398 alone or in combination with paclitaxel to SKOV3-TR ovarian cancer cells, which was determined by the immunostaining method described above.

**Q.** Which “AKT and STAT3 phosphorylation” value ([1]; sphere cultured SKOV3ip1, 5 μM BGJ398 (FIG. 6), AG490, 72 hours (FIG. 7B)) does the source give for `CCN1CCN(c2ccc(Nc3cc(N(C)C(=O)Nc4c(Cl)c(OC)cc(OC)c4Cl)ncn3)cc2)CC1` [BGJ398, 3-(2,6-dichloro-3,5-dimethoxyphenyl)-1-[6-[4-(4-ethylpiperazin-1yl)anilino]pyrimidin-4-yl]-1-methylurea] here?
**A.** suppressed again

**Q.** And the “phosphorylated AKT at Ser473” value ([1]; sphere cultured, 5 μM BGJ398, 3 μM TAE648, 5 μM imatinib, 72 hours (FIG. 6))?
**A.** inhibits phosphorylated AKT at Ser473 residue

**Q.** What about the XIAP expression [2] of the same molecule?
**A.** XIAP expression is reduced

**Q.** And the “level of phosphorylated AKT” value [2]?
**A.** significantly decreased

**Q.** And the “paclitaxel resistance / anticancer activity (cell shape)” value [3]?
**A.** can block paclitaxel resistance, thereby increasing anticancer activity

**Q.** What about the “aggregated (spheroid) form of cells” value [4] of the same molecule?
**A.** did not retain a normal coagulation state

**Q.** What about the “effect on anticancer effects of paclitaxel” value ([5]; 2D monolayer Hs578T, BGJ398 in combination with paclitaxel (FIG. 13)) of the same molecule?
**A.** enhance anticancer effects of paclitaxel

**Q.** What about the cell apoptosis ([5]; Hs578T, BGJ398 in combination with paclitaxel (FIGS. 13 and 14)) of the same molecule?
**A.** cell apoptosis is further increased

**Q.** What about the “expression of cleaved PARP and actin” value [6] of the same molecule?
**A.** increased in concentration- and time-dependent manners
